# Where two headings read alike, the source gives them in different places.
# How the values were obtained:
# [1] = system: climbing behavior induced by apomorphine; assay: Anti-climbing behavior test (suppression of climbing behavior induced by apomorphine in mice); format: in vivo, dd strain male mice; settings: for ED50: Mus musculus
# Source text: This activity was examined through the anti-climbing behavior test, i.e. the test for suppressing the climbing behavior induced by apomorphine in mice. A designated amount of the test compound was orally administered to several groups of dd strain male mice (bodyweight, 20 to 25 g; one group, 5 mice), and each of the animals was charged in an individual column cage of 12 cm in diameter and 14 cm in height having metal poles (each pole, 2 mm in diameter) vertically installed and arranged along the periphery with intervals of 1 cm. […]
# 0 All the paws were on the floor
# 1 Only forepaws seized the pole of the cage
# 2 All the paws seized the pole of the cage;
# climbing behavior observed discontinu-
# 3 Continuous climbing behavior observed
# [2] = Extrapyramidal activity: catalepsy inducing activity test; format: in vivo, dd strain male mice; settings: mouse, in vivo; oral; catalepsy checked 1 and 4 hours after administration; strained state over 30 seconds; mice
# Experimental: (§1) A designated amount of the test compound was orally administered to dd strain male mice (bodyweight, 22 to 27 g), and 1 and 4 hours after the administration, catalepsy induction was checked according to the Wirth et al method. Thus, each of the animals was forced to hang its forepaws onto a metal pole of 2.5 mm in diameter horizontally situated at a height of 5 cm to keep in a strained state. The test was made with three repetitions, and the presence of at least one case in which the animal was kept in the strained state over a period of 30 seconds was deemed to have caused catalepsy.
# [3] = cited from earlier work; for side effects on clinical use, in words: conventional neuroleptics
# catalepsy induction = assay: Extrapyramidal activity: catalepsy inducing activity test; format: in vivo, dd strain male mice; settings: oral
# Experimental: as §1
# [4] = sc, subcutaneous, apomorphine 1.0 mg/kg s.c., mice, read-out: ED50, Subcutaneous administration (anti-climbing, neuroleptic activity)
# [5] = oral, after 1 hour, apomorphine 1.0 mg/kg s.c., mice, read-out: ED50, Oral administration After 1 hour (anti-climbing, neuroleptic activity)
# [6] = oral, after 4 hours, apomorphine 1.0 mg/kg s.c., mice, read-out: ED50, Oral administration After 4 hours (anti-climbing, neuroleptic activity)
Structure (SMILES),"ED50 [1, 4] [mg/kg]","ED50 [1, 5] [mg/kg]","ED50 [1, 6] [mg/kg]",ED50 [2] [mg/kg],"side effects on clinical use, in words [3]",other results
"O=C(c1ccc(F)cc1)C1CCN(CCCCN2C(=O)[C@@H]3[C@H]4CC[C@H](C4)[C@@H]3C2=O)CC1 [Compound No. 1, N-[4-{4-(4-Fluorobenzoyl)piperidinyl}butyl]bicyclo[2.2.1]heptane-2,3-di-exo-carboximide]",0.12,3.7,21.8,25 to 50,–,–
"O=C1[C@@H]2[C@H]3CC[C@H](C3)[C@@H]2C(=O)N1CCCCN1CCC(c2nsc3ccccc23)CC1 [Compound No. 2, N-[4-{4-(1,2-Benzisothiazol-3-yl)-1-piperidinyl}butyl]bicyclo[2.2.1]heptane-2,3-di-exo-carboximide]",–,3.5,3.4,10 to 30,–,–
"O=C(c1ccc(F)cc1)C1CCN(CCCCN2C(=O)[C@@H]3[C@H](C2=O)[C@H]2C=C[C@@H]3C2)CC1 [Compound No. 5, N-[4-{4-(4-Fluorobenzoyl)piperidinyl}butyl]bicyclo[2.2.1]hept-5-ene-2,3-di-exo-carboximide]",< 1,1.3,2.2,25,–,–
"O=C(CCCN1CCC(O)(c2ccc(Cl)cc2)CC1)c1ccc(F)cc1 [Haloperidol, 4-[4-(4-chlorophenyl)-4-hydroxy-1-piperidinyl]-1-(4-fluorophenyl)-1-butanone]",–,–,–,3,serious side effects such as catalepsy and hypotension,"ED50 ([1]; po, 1 h, read-out: ED50, Oral administration After 1 hour (anti-climbing, neuroleptic activity)): 0.67 mg/kg; ED50 ([1]; po, 4 h, read-out: ED50, Oral administration After 4 hours (anti-climbing, neuroleptic activity)): 0.44 mg/kg; ED50 ([1]; sc, read-out: ED50, Subcutaneous administration (anti-climbing, neuroleptic activity)): 0.21 mg/kg; neuroleptic activity (anti-climbing activity), in words ([1]; route not stated): significant neuroleptic activity; extrapyramidal activity (catalepsy inducing activity), in words (catalepsy induction): considerably high level of extra-pyramidal activity"
"O=C1CC2(CCCC2)CC(=O)N1CCCCN1CCN(c2nsc3ccccc23)CC1 [Tiaspiron, 8-[4-(3-benzisothiazolyl)-1-piperazinylbutyl]-8-azaspiro[4,5]decane-7,9-dione]",0.23,9.4,61.5,–,–,"extrapyramidal side effects such as catalepsy inducing activity, in words ([3]; in comparison with butyrophenone compounds such as haloperidol): alleviated in extrapyramidal side effects such as catalepsy inducing activity"
"CN(C)CCCN1c2ccccc2Sc2ccc(Cl)cc21 [chlorpromazine, 2-chloro-10-(3-dimethylaminopropyl)phenothiazine]",–,–,–,–,serious side effects such as catalepsy and hypotension,–

# — US4812461A, “Imide derivatives and their use in the treatment psychosis” (Sumitomo Pharmaceuticals Company, Limited, priority 1986, dated 1989)
